Melting point and IC50 data for six compounds are collected here from patent US7645764B2, “Kinase inhibitors and methods for using the same” (Roche Palo Alto LLC, priority 2006, dated 2010).

Molecules are shown by their SMILES.

In series [1] the target is T1, cloned human c-Raf (Homo sapiens, UniProt P04049).
T1 construct: made in house; host or cells: High-5 (Hi5) insect cells, baculovirus, co-infected with FLAG-vSrc
The experiment in a line: c-Raf HTRF assay with 6H-MEK as substrate (dose response). Type of series: biochemical. The note with it: 6H-MEK substrate. As to the method:
c-Raf HTRF Assay with 6H-MEK as Substrate (Dose Response)
This assay utilizes 6H-MEK as the substrate. Upon c-Raf phosphorylation, phosphorylated 6H-MEK is detected with rabbit anti-phospho-MEK1/2, Eu-labeled anti-rabbit, and APC-labeled anti-6H antibodies.
Procedure • (1) Prepare Kinase Assay Buffer (KAB): 50 mM HEPES (HyClone) pH7, 10 mM MgCl2, 1 mM DTT, 0.1 mM […], and 0.3 mg/ml BSA. • (2) Prepare 6H-MEK (150 nM) in KAB. Add 12 μl/well to the assay plate. • (3) Prepare ATP (66 μM) in KAB. • (4) Dilute compounds to 2.4 mM and any positive controls to 480 μM in DMSO. Perform 10-point 3× dilution in DMSO. […] For the cross talk factor sample, add 6 μl/well of Eu-anti rabbit IgG (9 nM). • (14) Incubate at room temperature for 1.5 hours. • (15) Read HTRF signals at 615 nm and 665 nm on the Envision. […]
N terminal EE-tagged c-Raf was expressed in High-5 cells. […] Protein concentration was determined by the BioRad DC method.

Series [2] concerns the target T2, recombinant human b-Raf residues 416-end (wild type) (Homo sapiens, UniProt P15056).
T2 construct: recombinant human b-Raf residues 416-end with N-terminal GST-tag; purchased Upstate 14-530M; host or cells: baculovirus in Sf21 insect cells
Briefly: b-Raf wild-type HTRF assay with 6H-MEK as substrate (dose response). Type of series: biochemical. The note with it: 6H-MEK substrate. On the procedure: b-Raf Wild-Type HTRF Assay with 6H-MEK as Substrate (Dose Response)
This assay utilizes 6H-MEK as the substrate. Upon b-Raf WT phosphorylation, phosphorylated 6H-MEK is detected with rabbit anti-phospho-MEK1/2, Eu-labeled anti-rabbit, and APC-labeled anti-6H antibodies.
Assay Procedure: • (1) Prepare Kinase Assay Buffer (KAB): 50 mM HEPES (HyClone) pH7, 10 mM MgCl2, 1 mM DTT, 0.1 mM […], and 0.3 mg/ml BSA. • (2) Prepare 6H-MEK (150 nM) in KAB. Add 12 μl/well to the assay plate. • (3) Prepare ATP (66 μM) in KAB. • (4) Dilute compounds to 2.4 mM and any positive controls to 480 μM in DMSO. Perform 10-point 3× dilution in DMSO. […] For the cross talk factor sample, add 6 μl/well of Eu-anti rabbit IgG (9 nM). • (14) Incubate at room temperature for 1.5 hours. • (15) Read HTRF signals at 615 nm and 665 nm on the Envision. […]

The target in series [3] is T3, recombinant human b-Raf residues 416-end containing a V600E mutation (Homo sapiens, UniProt P15056, V600E).
T3 construct: recombinant human b-Raf residues 416-end containing a V600E mutation; purchased Upstate 14-5M; host or cells: baculovirus in Sf21 insect cells
The experiment in a line: b-Raf V600E mutant HTRF assay with 6H-MEK as substrate (dose response). Type of series: biochemical. As to conditions: 6H-MEK substrate. As to the method: b-Raf V600E Mutant HTRF Assay with 6H-MEK as Substrate (Dose Response)
This assay utilizes 6H-MEK as the substrate. Upon b-Raf V600E phosphorylation, phosphorylated 6H-MEK is detected with rabbit anti-phospho-MEK1/2, Eu-labeled anti-rabbit, and APC-labeled anti-6H antibodies.
Assay Procedure: • (1) Prepare Kinase Assay Buffer (KAB): 50 mM HEPES (HyClone) pH7, 10 mM MgCl2, 1 mM DTT, 0.1 mM […], and 0.3 mg/ml BSA. • (2) Prepare 6H-MEK (150 nM) in KAB. Add 12 μl/well to the assay plate. • (3) Prepare ATP (66 μM) in KAB. • (4) Dilute compounds to 2.4 mM and positive controls to 480 μM in DMSO. Perform 10-point 3× dilution in DMSO. […] For the cross talk factor sample, add 6 μl/well of Eu-anti rabbit IgG (9 nM). • (14) Incubate at room temperature for 1.5 hours. • (15) Read HTRF signals at 615 nm and 665 nm on the Envision. […]

Series [4] deals with T4, p38 MAP kinase (Homo sapiens, UniProt Q16539).
T4 construct: made in house; host or cells: E. coli (co-expressed with SEK-1 and MEKK)
Briefly: p38 MAP kinase in vitro assay (33P-ATP phosphate transfer to Myelin Basic Protein). Format: biochemical. On the procedure:
This example illustrates a p38 (MAP) kinase in vitro assay useful for evaluating the compounds of the invention.
The p38 MAP kinase inhibitory activity of compounds of this invention in vitro was determined by measuring the transfer of the γ-phosphate from γ-^33P-ATP by p-38 kinase to Myelin Basic Protein (MBP), using a minor modification of the method described in Ahn, et al., J. Biol. Chem. 266:4220-4227 (1991).
The phosphorylated form of the recombinant p38 MAP kinase was co-expressed with SEK-1 and MEKK in E. Coli (see, Khokhlatchev, et al., J. Biol. Chem. 272:11057-11062 (1997)) and then purified by affinity chromatography using a Nickel column.
The phosphorylated p38 MAP kinase was diluted in kinase buffer (20 mM 3-(N-morpholino)propanesulfonic acid, pH 7.2, 25 mM β-glycerol phosphate, 5 mM ethylene glycol-bis(beta-aminoethyl ether)-N,N,N′,N′-tetraacetic acid, 1 mM sodium ortho-vanadate, 1 mM dithiothreitol, 40 mM magnesium chloride). Test compound dissolved in DMSO or only DMSO (control) was added and the samples were incubated for 10 min at 30° C. The kinase reaction was initiated by the addition of a substrate cocktail containing MBP and γ-^33P-ATP. […] The phosphorylated MBP was then separated from the residual γ-^33P-ATP using a phosphocellulose membrane (Millipore, Bedfrod, Mass.) and quantitated using a scintillation counter (Packard, Meriden, Conn.).

T4 sequence (Q16539 whole entry): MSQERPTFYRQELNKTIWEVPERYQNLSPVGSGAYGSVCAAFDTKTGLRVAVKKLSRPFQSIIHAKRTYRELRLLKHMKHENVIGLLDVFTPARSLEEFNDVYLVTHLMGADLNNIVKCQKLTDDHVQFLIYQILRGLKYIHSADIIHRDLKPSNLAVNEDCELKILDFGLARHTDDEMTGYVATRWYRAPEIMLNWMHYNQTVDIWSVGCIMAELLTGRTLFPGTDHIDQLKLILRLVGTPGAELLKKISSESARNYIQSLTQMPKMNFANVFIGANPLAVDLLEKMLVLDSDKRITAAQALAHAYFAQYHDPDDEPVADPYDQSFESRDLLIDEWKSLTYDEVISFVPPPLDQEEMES
T2 sequence (P15056 416-766 limits assumed): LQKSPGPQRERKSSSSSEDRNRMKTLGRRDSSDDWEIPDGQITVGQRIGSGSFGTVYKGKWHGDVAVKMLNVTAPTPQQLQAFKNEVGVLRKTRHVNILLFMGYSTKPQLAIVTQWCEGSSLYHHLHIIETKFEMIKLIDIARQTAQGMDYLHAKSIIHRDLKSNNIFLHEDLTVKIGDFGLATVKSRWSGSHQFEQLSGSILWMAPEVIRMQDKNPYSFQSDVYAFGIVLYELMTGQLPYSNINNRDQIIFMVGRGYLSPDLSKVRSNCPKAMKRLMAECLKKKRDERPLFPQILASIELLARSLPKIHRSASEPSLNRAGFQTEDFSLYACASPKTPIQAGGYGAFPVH
T3 sequence (P15056 416-766 V600E): as the sequence (P15056 416-766 limits assumed) above, with V185E counted along it
T1 sequence (P04049 whole entry): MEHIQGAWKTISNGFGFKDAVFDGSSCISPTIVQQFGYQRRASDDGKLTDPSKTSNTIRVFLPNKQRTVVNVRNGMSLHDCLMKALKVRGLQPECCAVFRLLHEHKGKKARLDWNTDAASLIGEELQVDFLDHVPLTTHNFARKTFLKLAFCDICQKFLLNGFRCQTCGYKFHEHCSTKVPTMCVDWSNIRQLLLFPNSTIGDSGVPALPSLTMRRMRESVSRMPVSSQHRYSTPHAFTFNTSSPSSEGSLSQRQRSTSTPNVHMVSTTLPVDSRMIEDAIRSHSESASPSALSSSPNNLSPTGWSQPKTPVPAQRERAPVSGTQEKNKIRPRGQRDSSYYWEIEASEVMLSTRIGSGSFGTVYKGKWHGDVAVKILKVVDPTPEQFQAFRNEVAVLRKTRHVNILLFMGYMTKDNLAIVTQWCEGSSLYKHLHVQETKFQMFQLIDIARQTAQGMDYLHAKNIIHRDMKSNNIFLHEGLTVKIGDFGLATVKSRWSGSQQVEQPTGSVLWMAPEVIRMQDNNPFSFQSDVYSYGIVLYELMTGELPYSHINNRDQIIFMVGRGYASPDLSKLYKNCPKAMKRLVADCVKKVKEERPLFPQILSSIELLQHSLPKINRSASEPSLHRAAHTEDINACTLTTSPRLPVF

`COC(=O)c1ccc(C)c(-c2cc3cnc(NC4CCOCC4)nc3n(C)c2=O)c1` [Compound 1, 4-Methyl-3-[8-methyl-7-oxo-2-(tetrahydro-pyran-4-ylamino)-7,8-dihydro-pyrido[2,3-d]pyrimidin-6-yl]-benzoic acid methyl ester] showed a melting point of 122.5 to 126.5 °C.
In series [1], `Cc1nnc(-c2ccc(C)c(-c3cc4cnc(NC5CCOCC5)nc4n(C)c3=O)c2)o1` [Compound 4, 8-Methyl-6-[2-methyl-5-(5-methyl-[1,3,4]oxadiazol-2-yl)-phenyl]-2-(tetrahydro-pyran-4-ylamino)-8H-pyrido[2,3-d]pyrimidin-7-one] showed a concentration for half-maximal inhibition (IC50) of approximately 190 nM.
On to `CNC(=O)c1ccc(C)c(-c2cc3cnc(NC4CCOCC4)nc3n(C)c2=O)c1` [Compound 8, 4,N-Dimethyl-3-[8-methyl-7-oxo-2-(tetrahydro-pyran-4-ylamino)-7,8-dihydro-pyrido[2,3-d]pyrimidin-6-yl]-benzamide], for which the concentration for half-maximal inhibition (IC50) in series [2] was approximately 20 nM; in series [3], approximately 10 nM.
For `Cc1ccc(-c2nnc[nH]2)cc1-c1cc2cnc(NC3CCOCC3)nc2n(C)c1=O` [Compound 11, 8-Methyl-6-[2-methyl-5-(4H-[1,2,4]triazol-3-yl)-phenyl]-2-(tetrahydro-pyran-4-ylamino)-8H-pyrido[2,3-d]pyrimidin-7-one], the melting point was in the range of 214.9 to 216 °C.
As for `Cc1ccc(C#N)cc1-c1cc2cnc(NC3CCOCC3)nc2n(C)c1=O` [Compound 12, 4-Methyl-3-[8-methyl-7-oxo-2-(tetrahydro-pyran-4-ylamino)-7,8-dihydro-pyrido[2,3-d]pyrimidin-6-yl]-benzonitrile], the melting point was in the range of 253.5 to 254.1 °C.
For `Cc1ccc(-c2ncc[nH]2)cc1-c1cc2cnc(NC3CCOCC3)nc2n(C)c1=O` [Compound 13, 6-[5-(1H-Imidazol-2-yl)-2-methyl-phenyl]-8-methyl-2-(tetrahydro-pyran-4-ylamino)-8H-pyrido[2,3-d]pyrimidin-7-one], in series [4], the IC50 is approximately 0.66 nM.
